The record followed here is patent US20120238606A1, “[…] AMINE SALTS, PREPARATION METHOD AND USE THEREOF” (JIANGSU HANS PHA[…] CO., LTD., priority 2009, published 2012).

Assay [1] concerns angiotensin II-induced hypertensive rats. Put plainly: Effect on blood pressure in angiotensin II-induced hypertensive rats. The assay is classed as in vivo, Sprague-Dawley rats. Conditions: male SD rats, single equimolar dose ig (0.11 mg/kg example 1; 0.123 mg/kg example 2) in 0.5% methyl cellulose, AII 100 ng/kg iv again after 24 hours, Mean±S.E. How it is done: The effect of compounds of the present invention on blood pressure in angiotensin II-induced hypertensive rats was investigated.
Male Sprague-Dawley rats (9-11 weeks old, CLEA Japan, Inc.) were anesthetized by pentobarbital solution (50 mg/kg, ip.) and prepared for surgery. The surgery procedure was as follows: made an incision through the skin on the abdomen and abdominal wall, separated the aorta and vein from the vena cava, occluded blood flow to allow introduction of a polyethylene (PE) tube filled with normal saline containing heparin (200 U/mL) into the vessel, passed the PE tube through the subcutaneous slits, and fixed the PE tube at the back of the neck. After recovery period, the rats were induced hypertension by intravenous administration of 100 ng/kg angiotensin II (AII). The PE tube was combined with a pressure transducer coupled to a blood pressure monitor amplifier (2238, NEC San-ei Instruments). The animals were enrolled based on average systolic blood pressure over 24 hours. All the animals with average systolic blood pressure less than 140 mmHg were excluded from this study, and the others were divided into 2 groups. […] The rats were injected intravenously AII again after 24 hours, and their blood pressure were measured by the monitor. The rat blood pressure inhibition ratios after dosing were calculated. […] The results were expressed as Mean±S.E. (Table 1).

Assay [2] relates to angiotensin II-induced hypertensive dogs. Put plainly: Effect on blood pressure in angiotensin II-induced hypertensive dogs. In kind it is in vivo. The conditions noted are these: male Beagle dogs, equimolar dose ig (1.10 mg/kg example 1; 1.23 mg/kg example 2) in 0.5% methyl cellulose, mean±S.E. How it is done: The effect of compounds of the present invention on blood pressure in angiotensin II-induced hypertensive dogs was investigated.
In this study, male Beagle dogs (weighting 12.0-14.7 kg, KITAYAMA LABES, CO., LTD.) were employed. The dogs were anesthetized by pentobarbital solution (50 mg/kg, ip) and prepared for surgery. The surgery procedure was as follows: made an endotracheal intubation for controlling the breathing, shaved the regions of femoral and back of the neck, fixed the dogs at the dorsal position, used isodine solution (MEIJI SEIKA KAISHA, LTD.) to sterilize the skins, made an incision through the skin on the right femoral region, separated the arteria femoralis, occluded blood flow to allow introduction of a mirror catheter (5 F, MILLER INDUSTRIES) and polyurethane tube into the aorta and vein, respectively, passed the tubes through the subcutaneous slits and fixed the tubes at the back, closed the wall and sutured the skin, and injected intramuscularly the penicillin G potassium (MEIJI SEIKA KAISHA, LTD., 40,000 units) for sterilization. For post-operative care, animals were administered 40,000 units penicillin G potassium intramuscularly once daily for 3 days. There was a recovery period before study ongoing.
The animals were singly housed in a small metabolic cage and fasted during the experiment. The mirror catheter was linked to a transducer unit (MILLER INDUSTRIES). Through a DC amplifier (N4777, NEC San-ei Instruments) and a blood pressure monitor amplifier (N4441, NEC San-ei Instruments), the blood pressure was recorded by a recorder (RECTI-HORIZ 8 K, NEC San-Ei Instruments). In order to establish a hypertension model, the dogs were injected intravenously 100 ng/kg AII for 3 or 4 times before dosing test articles. The test articles were an equal molar dose suspended in 0.5% methyl cellulose, and the dosing volume for all animals was 2 mL/kg. After administration, the blood pressure was measured by the monitor. The dog blood pressure inhibition ratios after dosing were calculated, and the results were expressed as mean±S.E. (Table 2).

Consider `CCOc1nc2cccc(C(=O)O)c2n1Cc1ccc(-c2ccccc2-c2noc(=O)[nH]2)cc1.C[N+](C)(C)CCO` [Product of example 2, Azilsartan choline], for which the “Inhibition ratios (%) (blood pressure inhibition ratio after dosing)” value in assay [1] amounted to 54.3 ± 5.1%. Also, in assay [2], the “Inhibition ratios (%) 10 hr post dosing” value came out at 79.3 ± 8.6% and the “Inhibition ratios (%) 24 hr post dosing” value was 59.5 ± 6.3%.
The matching figures for `CCOc1nc2cccc(C(=O)O)c2n1Cc1ccc(-c2ccccc2-c2noc(=O)[nH]2)cc1.NCCO` [Product of example 1, Azilsartan ethanolamine]: 57.4 ± 6.7%, 82.7 ± 7.3% and 61.6 ± 4.8%.
